“Also recorded” adds a separate entry of the source.
What was measured:
[1] = tested on: normal human dermal fibroblasts (HF 250); assay: Pilot study: collagen produced by fibroblast cultures, pepsin extraction and SDS-PAGE of collagen α chains; assay type: cell-based; conditions: 0, 1, 3, 10 or 30 μg/ml tested, 24 hours, ascorbate 50 μg/ml, Coomassie-stained SDS-PAGE; data not shown
Method: (§1) A primary cell line of normal human dermal fibroblasts (HF 250) was derived from the outgrowth of cells from explants of discarded foreskin. Fibroblasts were maintained in Dulbecco's modification of Eagles medium (DMEM) supplemented with 10% fetal bovine serum (FBS). Cells were grown to confluence and passed 1:1 by trypsinization. HF 250 cells were used between their 5th and 7th passages.
(§2) To optimize collagen synthesis and processing by cultured fibroblasts, the culture medium was supplemented with 50 μg/ml of vitamin C as L-ascorbic acid 2-phosphate sesquimagnesium salt (Sigma Chemical Co., St. Louis, Mo.). Oxandrolone was the anabolic steroid tested, and it was supplied by Bio-Technology General Corp., Iselin, N.J. A stock solution of oxandrolone was made in a 10% dimethyl-sulfoxide solution.
An initial pilot study was conducted to determine the concentration of anabolic steroid that would maximize collagen synthesis, as follows. After fibroblast cultures became confluent in 2 days, the culture medium was replaced with a medium supplemented with ascorbate at 50 μg/ml. To each dish, a different concentration of oxandrolone was added (0, 1, 3, 10 or 30 μg/ml). Dishes were incubated for 24 hours in a water saturated atmosphere at 37° in 95% air, 5% CO2. […]

type I procollagen mRNA = assay: Northern blot of type I procollagen mRNA in HF 250 fibroblasts grown on collagen or plastic; assay type: cell-based, human; conditions: 3 μg/ml, 24 hours, vs 10% dimethyl sulfoxide alone; for expression of type I procollagen mRNA (ratio to GAPDH mRNA density) relative to control: fibroblasts grown on collagen; for expression of type I procollagen mRNA relative to control: fibroblasts grown on plastic
Method: as §1
(§3) Acid-soluble collagen was isolated from rat tail tendons by acetic acid extraction. Briefly, rat tail tendons were teased from adult rat tails and stirred in ice cold 0.5 M acetic acid for 2 days. The solubilized collagen was cleared by centrifugation and the supernatant made 10% in respect to NaCl w/v. The precipitated collagen was collected by centrifugation, resuspended in 1 mM HCl, dialyzed exhaustively against 1 mM HCl, frozen, lyophilized, weighed, resuspended in sterile ice cold 1 mM HCl at 5 mg/ml and stored at 4° C. until needed. The bottoms of 10 cm Petri dishes were covered with cold, sterile collagen solution. Any free collagen solution was removed with a Pasteur pipette and the coated dishes placed in a 37° C. incubator, where they were incubated overnight to allow complete polymerization of the collagen-coated surface.
as §2
(§4) Equal numbers of fibroblasts were plated onto tissue culture plastic dishes or collagen-coated Petri dishes. Four confluent 10 cm dishes of HF 250 cells were split in half and the cells replated in four 10 cm collagen-coated and four uncoated dishes. Two collagen-coated dishes and two uncoated dishes received 3 μg/ml of oxandrolone. The two remaining collagen-coated and uncoated dishes received an equal volume of 10% dimethyl-sulfoxide alone. After 24 hours of incubation, the medium was removed and the dishes rinsed with phosphate buffered saline. Northern blot analysis was used to determine the levels of both type I and type III procollagen mRNA expression. Total RNA was extracted from culture cells, using the Total RNA Isolation kit (Ambion, Inc; Austin, Tex.) following the supplier's instructions. […]
(§5) Total extracted RNA was subjected to agarose gel electrophoresis and blotted on a nylon membrane. […] The x-ray film was developed and quantitative analysis done by densitometry. […] The quantities of type I and type III procollagen α1 mRNAs and GAPDH mRNA were determined by densitometry. […]

[2] = tested on: type III procollagen mRNA; assay: Northern blot of type III procollagen mRNA in HF 250 fibroblasts grown on collagen or plastic; assay type: cell-based, human; conditions: 3 μg/ml, 24 hours, vs 10% dimethyl sulfoxide alone; for increase of type III procollagen mRNA expression (ratio to GAPDH mRNA density) relative to control: fibroblasts grown on collagen; for expression of type III procollagen mRNA relative to control: fibroblasts grown on plastic
Method: as §1, §3, §2, §4, §5

HF 250 cells = assay: Cell number and morphology of fibroblasts grown on collagen or plastic; assay type: cell-based, human; conditions: 3 μg/ml, 24 hours
Method: Equal numbers of fibroblasts were plated onto tissue culture plastic dishes or collagen-coated Petri dishes. Four confluent 10 cm dishes of HF 250 cells were split in half and the cells replated in four 10 cm collagen-coated and four uncoated dishes. Two collagen-coated dishes and two uncoated dishes received 3 μg/ml of oxandrolone. The two remaining collagen-coated and uncoated dishes received an equal volume of 10% dimethyl-sulfoxide alone. After 24 hours of incubation, the medium was removed and the dishes rinsed with phosphate buffered saline. Northern blot analysis was used to determine the levels of both type I and type III procollagen mRNA expression. Total RNA was extracted from culture cells, using the Total RNA Isolation kit (Ambion, Inc; Austin, Tex.) following the supplier's instructions. Type I and type III procollagen cDNAs were purchased from American Type Culture Collection (Manassas, Va.). The human α1 (I) (HF677) and α1 (III) (HF934) procollagen cDNAs were enzymatically cleaved, purified, and subsequently end-labeled with ^32P dCTP (New England Nuclear, Boston, Mass.) to generate specific cDNA probes.
By 24 hours, the density of cells on the plastic surface appeared greater than the density of cells grown on collagen. […] See, e.g., Greco and Ehrlich (1992).

C[C@]12COC(=O)C[C@@H]1CC[C@@H]1[C@@H]2CC[C@@]2(C)[C@H]1CC[C@]2(C)O [Oxandrolone, 17-methyl-17-hydroxy-2-oxa-5-androstan-3-one]
concentration giving the maximal intensity of collagen α chain staining [1]: 3 µg/mL
expression of type I procollagen mRNA (ratio to GAPDH mRNA density) relative to control (type I procollagen mRNA): doubled; also recorded: increased
expression of type I procollagen mRNA (ratio to GAPDH mRNA density) relative to control (type I procollagen mRNA; listed as oxandrolone): doubles
expression of type I procollagen mRNA relative to control (type I procollagen mRNA): did not noticeably change; also recorded: minimal effect
expression of type I procollagen mRNA relative to control (type I procollagen mRNA; listed as oxandrolone): minimal change
increase of type III procollagen mRNA expression (ratio to GAPDH mRNA density) relative to control [2]: enhanced
increase of type III procollagen mRNA expression (ratio to GAPDH mRNA density) relative to control ([2]; listed as oxandrolone): 11 fold
expression of type III procollagen mRNA relative to control [2]: enhanced
expression of type III procollagen mRNA relative to control ([2]; listed as oxandrolone): minimal change; also recorded: minimal effect
cell morphology (HF 250 cells): no obvious difference
number of fibroblasts (HF 250 cells): did not affect

— patent publication US20070099881A1, “Method of treating wounds by enhancing expression of procollagen” (priority 2001, published 2007)
